# Measured values taken from patent US6322962A, “Sterol-regulated Site-1 protease and assays of modulators thereof” (Board of Regents, The University of Texas System, priority 1999, dated 2001).
# Square brackets hold non-standard residues; d marks the D form. Peptide text beside a SMILES is read from it. * marks the point of attachment. Sta = CC(C)C[C@H](N)[C@@H](O)CC(=O)O; AMC = Cc1cc(=O)oc2cc(N*)ccc12; Isovaleryl = CC(C)CC(=O)*; Boc = CC(C)(C)OC(=O)*
# Experiments:
# [1] = biological target: T1, purified S1P(983)-C (Cricetulus griseus, UniProt Q9Z2A8, T875N); experiment: Fluorogenic peptide assay for S1P activity (cleavage of MCA-conjugated peptides); type: biochemical, hamster; conditions: for Relative Activity: 100 μM peptide-MCA, 3 μg S1P(983)-C, 37° C., 5 h, Ac-VFRSLK-MCA set at 1.0; for cleavage of the peptide: result in words
# T1 construct: Truncated S1P (amino acids 1-983); GGR linker (NotI site); made in house; host or cells: SRD-12B cells (mutant CHO cells lacking S1P) stably transfected with pCMV-S1P(983)-Myc-His (TR-3117, 'S1P(983) cells'); secreted into the medium and purified on Ni-NTA
# T1 sequence (Q9Z2A8 187-983 T875N): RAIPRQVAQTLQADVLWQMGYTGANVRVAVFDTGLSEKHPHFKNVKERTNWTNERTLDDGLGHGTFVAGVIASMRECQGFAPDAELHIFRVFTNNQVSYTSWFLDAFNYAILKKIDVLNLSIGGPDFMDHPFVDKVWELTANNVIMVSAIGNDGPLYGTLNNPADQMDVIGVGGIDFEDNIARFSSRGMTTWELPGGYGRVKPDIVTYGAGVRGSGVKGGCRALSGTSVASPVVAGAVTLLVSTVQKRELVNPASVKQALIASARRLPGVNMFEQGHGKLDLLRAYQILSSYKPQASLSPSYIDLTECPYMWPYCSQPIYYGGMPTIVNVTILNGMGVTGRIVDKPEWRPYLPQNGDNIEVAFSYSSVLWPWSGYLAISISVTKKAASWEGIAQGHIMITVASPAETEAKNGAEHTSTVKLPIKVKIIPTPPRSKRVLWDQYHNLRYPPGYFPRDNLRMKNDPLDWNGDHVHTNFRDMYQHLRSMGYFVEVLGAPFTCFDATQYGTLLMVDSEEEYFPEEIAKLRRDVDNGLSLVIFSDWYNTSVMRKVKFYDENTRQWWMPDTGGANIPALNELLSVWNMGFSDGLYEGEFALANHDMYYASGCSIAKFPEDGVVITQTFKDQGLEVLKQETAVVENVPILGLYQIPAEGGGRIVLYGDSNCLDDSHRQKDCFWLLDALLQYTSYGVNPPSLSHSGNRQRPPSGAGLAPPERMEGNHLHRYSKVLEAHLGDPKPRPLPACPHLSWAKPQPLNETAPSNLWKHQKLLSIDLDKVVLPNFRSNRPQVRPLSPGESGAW
# Protocol: (§1) Fluorogenic Peptide Assay for S1P Activity
# S1P activity was measured fluorometrically with MCA-conjugated peptidyl substrates. Each reaction was carried out in 0.2 ml of assay buffer (25 mM Tris, 25 mM Mes, 25 mM acetic acid, and 1 mM CaCl2 adjusted to pH 8.0 with concentrated NaOH). Reactions contained MCA-peptide (final concentration 100 μM, added in 2 μl DMSO) and […] of purified S1P(983)-C. After incubation for 0.5-5 h at 37° C., each reaction was terminated by addition of 1 ml of ice-cold 5 mM sodium EDTA. The liberated 7-amino-4-methyl-coumarin (AMC) was measured with a Perkin-ElmerLS-30 luminescence spectrometer (360 nm excitation, 460 nm emission). A standard curve of fluorescence intensity was generated with different concentrations of AMC (Promega).
# Similar substrates have been used to assay furin, prohormone convertases, and other subtilisin-related enzymes (Nakayama, 1997). […] The sequence of this peptide corresponds to the sequence at Site-B of S1P, which is known to be cleaved by S1P in an autocatalytic reaction. Fluorescence rose linearly with time for 5 h. […] This differs from the observations with furin and the prohormone convertases, whose pH optima are generally in the range of 6-7 (Nakayama, 1997).
# The indicated fluorogenic peptide-MCA (100 μM) was incubated with 3 μg of purified S1P(983)-C at 37° C. for 5 h. The S1P activity of Ac-VFRSLK-MCA (SEQ ID NO:13, 930 pmol per min/mg protein) was set at 1.0, and the activity of the other substrates was expressed relative to this value. Each value represents the average of duplicate incubations, which varied from each other by <10%.
# [2] = biological target: T1, purified S1P(983)-C; experiment: Effect of protease inhibitors on S1P(983)-C mediated cleavage of Ac-VFRSLK-MCA; type: biochemical, hamster; conditions: for inhibition of S1P(983)-C: result in words
# Protocol: as §1
# S1P activity was measured fluorometrically with MCA-conjugated peptidyl substrates. […] After incubation for 0.5-5 h at 37° C., each reaction was terminated by addition of 1 ml of ice-cold 5 mM sodium EDTA. The liberated 7-amino-4-methyl-coumarin (AMC) was measured with a Perkin-ElmerLS-30 luminescence spectrometer (360 nm excitation, 460 nm emission). A standard curve of fluorescence intensity was generated with different concentrations of AMC (Promega).
# [3] = 3 mM, 100 μM Ac-VFRSLK-MCA, 37° C., 5 h
# [4] = 1 mM, 100 μM Ac-VFRSLK-MCA, 37° C., 5 h
# [5] = 10 mM, 100 μM Ac-VFRSLK-MCA, 37° C., 5 h
# [6] = 0.0003 mM, 100 μM Ac-VFRSLK-MCA, 37° C., 5 h
molecule,measurement,setting,value
"CC(=O)N[C@H](C(=O)N[C@@H](Cc1ccccc1)C(=O)N[C@@H](CCCNC(=N)N)C(=O)N[C@@H](CO)C(=O)N[C@@H](CCCNC(=N)N)C(=O)N[C@@H](CCCNC(=N)N)C(=O)Nc1ccc2c(C)cc(=O)oc2c1)C(C)C [Ac-VFRSRR-MCA, Ac-Val-Phe-Arg-Ser-Arg-Arg-MCA] (Ac-VFRSRR-{AMC})",Relative Activity,[1],< 0.1
same,cleavage of the peptide,[1],did not cleave
"Cc1cc(=O)oc2cc(NC(=O)[C@H](CCCNC(=N)N)NC(=O)[C@H](CCCNC(=N)N)NC(=O)[C@@H](NC(=O)[C@H](CCCNC(=N)N)NC(=O)OC(C)(C)C)C(C)C)ccc12 [Boc-RVRR-MCA, Boc-Arg-Val-Arg-Arg-MCA] (Boc-RVRR-{AMC})",Relative Activity,[1],< 0.1
same,cleavage of the peptide,[1],did not cleave
same,cleavage of the peptide,[1]; listed as RVRR-MCA,does not cleave
O=C(O)CN(CCOCCOCCN(CC(=O)O)CC(=O)O)CC(=O)O [EGTA],AMC Liberated,[2]; [3],609 pmol/tube
same,AMC Liberated,"[2]; 30 mM, 100 μM Ac-VFRSLK-MCA, 37° C., 5 h",305 pmol/tube
same,remaining activity at 3000 µM,"[2]; pH 8, 3 mM, 100 μM Ac-VFRSLK-MCA, 37° C., 5 h, read-out: AMC Liberated, % control",73%
same,remaining activity at 30000 µM,"[2]; pH 8, 30 mM, 100 μM Ac-VFRSLK-MCA, 37° C., 5 h, read-out: AMC Liberated, % control",36%
same,inhibition of S1P(983)-C,[2],partially inhibited
CC(=O)N[C@@H](CC(C)C)C(=O)N[C@@H](CC(C)C)C(=O)N[C@H](C=O)CCCNC(=N)N [Leupeptin],AMC Liberated,[2]; [4],754 pmol/tube
same,remaining activity at 1000 µM,"[2]; pH 8, 1 mM, 100 μM Ac-VFRSLK-MCA, 37° C., 5 h, read-out: AMC Liberated, % control",90%
same,inhibition of S1P(983)-C,[2],resistant
"O=S(=O)(F)Cc1ccccc1 [PMSF, phenylmethylsulfonyl fluoride]",AMC Liberated,[2]; [4],853 pmol/tube
same,"AMC Liberated, % control",[2]; [4],102 % control
same,AMC Liberated,[2]; [5],690 pmol/tube
same,"AMC Liberated, % control",[2]; [5],82 % control
same,inhibition of S1P(983)-C,[2],resisted
NCCc1ccc(S(=O)(=O)F)cc1 [Pefabloc ®],AMC Liberated,[2]; [4],731 pmol/tube
same,"AMC Liberated, % control",[2]; [4],87 % control
same,AMC Liberated,[2]; [3],366 pmol/tube
same,"AMC Liberated, % control",[2]; [3],44 % control
same,AMC Liberated,[2]; [5],60 pmol/tube
same,"AMC Liberated, % control",[2]; [5],7 % control
same,inhibition of S1P(983)-C,[2],inhibited by high concentrations
CC(C)CC(=O)N[C@H](C(=O)N[C@H](C(=O)N[C@@H](CC(C)C)[C@@H](O)CC(=O)N[C@@H](C)C(=O)N[C@@H](CC(C)C)[C@@H](O)CC(=O)O)C(C)C)C(C)C [Pepstatin] (Isovaleryl-VV[Sta]A[Sta]-OH),AMC Liberated,"[2]; 0.01 mM, 100 μM Ac-VFRSLK-MCA, 37° C., 5 h",798 pmol/tube
same,remaining activity at 10 µM,"[2]; pH 8, 0.01 mM, 100 μM Ac-VFRSLK-MCA, 37° C., 5 h, read-out: AMC Liberated, % control",95%
same,inhibition of S1P(983)-C,[2],resistant
Aprotinin,AMC Liberated,[2]; [6],745 pmol/tube
same,"AMC Liberated, % control",[2]; [6],89 % control
same,inhibition of S1P(983)-C,[2],resistant
calcium,calcium concentrations at which the reaction was inhibited,[2],above 3 mM
same,effect of omission of calcium on the enzyme reaction,[2]; omission during purification and in the assay buffer,not affected
